Two compounds from ChEMBL document CHEMBL4507263, “Data for DCP probe BAY-474” (2021) can be followed below.

Assay [1] has as its target Mitogen-activated protein kinase 9 (Homo sapiens) (UniProt P45984). Description: JNK2alpha2 (h) Millipore kinase activity assay. The following applies: Compound concentration 1.0 uM.
For assay [2], the target named is Mitogen-activated protein kinase 1 (Homo sapiens) (UniProt P28482). The assay can be described thus: MAPK2( h) Millipore kinase activity assay. The following applies: Compound concentration 1.0 uM.
The target in assay [3] is Serine/threonine-protein kinase 3 (Homo sapiens) (UniProt Q13188). Description: MST2 (h) Millipore kinase activity assay. The following applies: Compound concentration 1.0 uM.
Assay [4] has as its target Tyrosine-protein kinase FRK (Homo sapiens) (UniProt P42685). Description: PTK5 (h) Millipore kinase activity assay. The settings on record: Compound concentration 1.0 uM.
The target in assay [5] is Angiopoietin-1 receptor (Homo sapiens) (UniProt Q02763). The assay can be described thus: Tie2 (h) Millipore kinase activity assay. The settings on record: Compound concentration 1.0 uM.
Assay [6] deals with High affinity nerve growth factor receptor (Homo sapiens) (UniProt P04629). Description: TrkA (h) Millipore kinase activity assay. The settings on record: Compound concentration 1.0 uM.
In assay [7] the target is Glucocorticoid receptor (Homo sapiens) (UniProt P04150). The assay can be described thus: Glucocorticoid Eurofins-Panlabs radioligand binding assay. The settings on record: Compound concentration 10.0 uM.
Assay [8] addresses B2 bradykinin receptor (Homo sapiens) (UniProt P30411). The following applies: Compound concentration 10.0 uM.
Assay [9] concerns the target Cannabinoid receptor 1 (Homo sapiens) (UniProt P21554). The settings on record: Compound concentration 10.0 uM.
Assay [10] has as its target Cytoplasmic tyrosine-protein kinase BMX (Homo sapiens) (UniProt P51813). The assay can be described thus: Bmx (h) Millipore kinase activity assay. The following applies: Compound concentration 1.0 uM.
Assay [11] has as its system Tyrosine-protein kinase ABL1 (Homo sapiens), P00519 [Q252H]. The following applies: Compound concentration 1000.0 nM.
The target of assay [12] is Tyrosine-protein kinase ABL2 (Homo sapiens) (UniProt P42684). The settings on record: Compound concentration 1000.0 nM.
Assay [13] deals with RAC-gamma serine/threonine-protein kinase (Homo sapiens) (UniProt Q9Y243). The following applies: Compound concentration 1000.0 nM.
In assay [14] the target is ALK tyrosine kinase receptor (Homo sapiens) (UniProt Q9UM73). The following applies: Compound concentration 1000.0 nM.
The target in assay [15] is Bone morphogenetic protein receptor type-1B (Homo sapiens) (UniProt O00238). The settings on record: Compound concentration 1000.0 nM.
In assay [16] the target is Myotonin-protein kinase (Homo sapiens) (UniProt Q09013). The settings on record: Compound concentration 1000.0 nM.
For assay [17], the target named is Serine/threonine-protein kinase 17A (Homo sapiens) (UniProt Q9UEE5). The settings on record: Compound concentration 1000.0 nM.
In assay [18] the test system is Epidermal growth factor receptor (Homo sapiens), P00533 [L858R,T790M]. The following applies: Compound concentration 1000.0 nM.
Assay [19] addresses Receptor tyrosine-protein kinase erbB-4 (Homo sapiens) (UniProt Q15303). The settings on record: Compound concentration 1000.0 nM.
The target of assay [20] is Fibroblast growth factor receptor 2 (Homo sapiens) (UniProt P21802). The settings on record: Compound concentration 1000.0 nM.
Assay [21] addresses Vascular endothelial growth factor receptor 1 (Homo sapiens) (UniProt P17948). The settings on record: Compound concentration 1000.0 nM.
In assay [22] the target is Receptor-type tyrosine-protein kinase FLT3 (Homo sapiens) (UniProt P36888). The following applies: Compound concentration 1000.0 nM.
In assay [23] the test system is Receptor-type tyrosine-protein kinase FLT3 (Homo sapiens), P36888 [UNDEFINED MUTATION]. The following applies: Compound concentration 1000.0 nM.
For assay [24], the system named is eIF-2-alpha kinase GCN2 (Homo sapiens), Q9P2K8 [S808G]. The settings on record: Compound concentration 1000.0 nM.
Assay [25] addresses Tyrosine-protein kinase HCK (Homo sapiens) (UniProt P08631). The following applies: Compound concentration 1000.0 nM.
The target of assay [26] is Mitogen-activated protein kinase kinase kinase kinase 1 (Homo sapiens) (UniProt Q92918). The settings on record: Compound concentration 1000.0 nM.
Assay [27] concerns the target Inhibitor of nuclear factor kappa-B kinase subunit alpha (Homo sapiens) (UniProt O15111). The following applies: Compound concentration 1000.0 nM.
The target in assay [28] is Mitogen-activated protein kinase 10 (Homo sapiens) (UniProt P53779). The following applies: Compound concentration 1000.0 nM.
In assay [29] the target is Serine/threonine-protein kinase LATS2 (Homo sapiens) (UniProt Q9NRM7). The following applies: Compound concentration 1000.0 nM.
For assay [30], the target named is Serine/threonine-protein kinase 10 (Homo sapiens) (UniProt O94804). The following applies: Compound concentration 1000.0 nM.
In assay [31] the target is Mitogen-activated protein kinase kinase kinase 4 (Homo sapiens) (UniProt Q9Y6R4). The following applies: Compound concentration 1000.0 nM.
The target of assay [32] is Microtubule-associated serine/threonine-protein kinase 1 (Homo sapiens) (UniProt Q9Y2H9). The settings on record: Compound concentration 1000.0 nM.
For assay [33], the target named is Mitogen-activated protein kinase kinase kinase 11 (Homo sapiens) (UniProt Q16584). The settings on record: Compound concentration 1000.0 nM.
Assay [34] has as its target Serine/threonine-protein kinase Nek9 (Homo sapiens) (UniProt Q8TD19). The following applies: Compound concentration 1000.0 nM.
Assay [35] has as its target Mitogen-activated protein kinase 12 (Homo sapiens) (UniProt P53778). The following applies: Compound concentration 1000.0 nM.
In assay [36] the test system is Phosphatidylinositol 4,5-bisphosphate 3-kinase catalytic subunit alpha isoform (Homo sapiens), P42336 [E545A]. The following applies: Compound concentration 1000.0 nM.
The subject of assay [37] is Phosphatidylinositol 4,5-bisphosphate 3-kinase catalytic subunit alpha isoform (Homo sapiens), P42336 [M1043I]. The settings on record: Compound concentration 1000.0 nM.
For assay [38], the target named is Protein kinase C epsilon type (Homo sapiens) (UniProt Q02156). The following applies: Compound concentration 1000.0 nM.
In assay [39] the target is Serine/threonine-protein kinase RIO2 (Homo sapiens) (UniProt Q9BVS4). The following applies: Compound concentration 1000.0 nM.
The target of assay [40] is Rho-associated protein kinase 1 (Homo sapiens) (UniProt Q13464). The following applies: Compound concentration 1000.0 nM.
Assay [41] deals with Serine/threonine-protein kinase SIK2 (Homo sapiens) (UniProt Q9H0K1). The settings on record: Compound concentration 1000.0 nM.
The target of assay [42] is Serine/threonine-protein kinase 35 (Homo sapiens) (UniProt Q8TDR2). The following applies: Compound concentration 1000.0 nM.
The target of assay [43] is Serine/threonine-protein kinase TAO3 (Homo sapiens) (UniProt Q9H2K8). The settings on record: Compound concentration 1000.0 nM.
In assay [44] the target is NT-3 growth factor receptor (Homo sapiens) (UniProt Q16288). The settings on record: Compound concentration 1000.0 nM.
Assay [45] has as its target Non-receptor tyrosine-protein kinase TYK2 (Homo sapiens) (UniProt P29597). The settings on record: Compound concentration 1000.0 nM.

Glucocorticoid receptor (Homo sapiens), sequence (P04150 whole entry): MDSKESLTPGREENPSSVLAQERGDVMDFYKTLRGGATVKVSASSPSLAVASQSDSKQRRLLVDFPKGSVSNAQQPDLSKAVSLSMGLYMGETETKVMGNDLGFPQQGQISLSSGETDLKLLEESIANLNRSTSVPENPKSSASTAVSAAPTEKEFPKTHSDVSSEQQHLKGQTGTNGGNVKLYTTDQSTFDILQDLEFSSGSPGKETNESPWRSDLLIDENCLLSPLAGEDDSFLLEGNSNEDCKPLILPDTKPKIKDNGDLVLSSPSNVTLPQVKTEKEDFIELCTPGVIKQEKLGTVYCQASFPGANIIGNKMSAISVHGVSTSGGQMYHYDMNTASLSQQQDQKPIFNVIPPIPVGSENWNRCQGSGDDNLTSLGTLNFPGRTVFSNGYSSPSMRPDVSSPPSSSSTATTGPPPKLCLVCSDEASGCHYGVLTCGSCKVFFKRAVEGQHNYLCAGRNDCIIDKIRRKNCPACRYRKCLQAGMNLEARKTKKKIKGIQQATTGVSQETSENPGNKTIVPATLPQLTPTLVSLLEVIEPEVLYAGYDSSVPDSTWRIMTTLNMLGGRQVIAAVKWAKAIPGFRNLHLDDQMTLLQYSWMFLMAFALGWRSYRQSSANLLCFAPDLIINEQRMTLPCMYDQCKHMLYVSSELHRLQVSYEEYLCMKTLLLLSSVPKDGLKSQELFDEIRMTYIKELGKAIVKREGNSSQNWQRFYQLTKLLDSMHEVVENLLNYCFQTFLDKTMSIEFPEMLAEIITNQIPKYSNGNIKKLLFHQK
Serine/threonine-protein kinase SIK2 (Homo sapiens), sequence (Q9H0K1 whole entry, looked up): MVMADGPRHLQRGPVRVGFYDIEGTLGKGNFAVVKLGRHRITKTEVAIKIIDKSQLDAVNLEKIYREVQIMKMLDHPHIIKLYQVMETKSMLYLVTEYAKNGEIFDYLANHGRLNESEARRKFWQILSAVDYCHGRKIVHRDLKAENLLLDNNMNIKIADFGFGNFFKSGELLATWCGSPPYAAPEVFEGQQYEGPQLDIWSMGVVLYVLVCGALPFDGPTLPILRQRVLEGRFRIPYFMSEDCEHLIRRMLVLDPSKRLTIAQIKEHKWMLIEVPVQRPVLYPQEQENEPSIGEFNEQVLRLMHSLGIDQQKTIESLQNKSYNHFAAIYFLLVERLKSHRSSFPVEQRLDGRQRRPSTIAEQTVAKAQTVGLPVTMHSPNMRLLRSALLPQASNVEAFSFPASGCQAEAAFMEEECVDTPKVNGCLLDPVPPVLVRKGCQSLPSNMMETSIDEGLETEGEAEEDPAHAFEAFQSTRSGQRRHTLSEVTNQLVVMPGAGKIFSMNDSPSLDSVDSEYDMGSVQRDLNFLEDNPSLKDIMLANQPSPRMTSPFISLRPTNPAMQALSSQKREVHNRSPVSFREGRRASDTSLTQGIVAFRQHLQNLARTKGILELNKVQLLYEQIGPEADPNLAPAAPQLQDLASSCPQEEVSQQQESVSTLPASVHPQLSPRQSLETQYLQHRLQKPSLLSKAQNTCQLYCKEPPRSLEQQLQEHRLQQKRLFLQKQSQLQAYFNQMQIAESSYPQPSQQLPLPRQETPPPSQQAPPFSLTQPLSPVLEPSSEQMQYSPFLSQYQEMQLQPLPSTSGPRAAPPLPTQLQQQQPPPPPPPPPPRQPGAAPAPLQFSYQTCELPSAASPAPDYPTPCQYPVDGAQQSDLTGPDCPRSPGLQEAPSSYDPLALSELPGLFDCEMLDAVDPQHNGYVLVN
Serine/threonine-protein kinase 3 (Homo sapiens), sequence (Q13188 whole entry): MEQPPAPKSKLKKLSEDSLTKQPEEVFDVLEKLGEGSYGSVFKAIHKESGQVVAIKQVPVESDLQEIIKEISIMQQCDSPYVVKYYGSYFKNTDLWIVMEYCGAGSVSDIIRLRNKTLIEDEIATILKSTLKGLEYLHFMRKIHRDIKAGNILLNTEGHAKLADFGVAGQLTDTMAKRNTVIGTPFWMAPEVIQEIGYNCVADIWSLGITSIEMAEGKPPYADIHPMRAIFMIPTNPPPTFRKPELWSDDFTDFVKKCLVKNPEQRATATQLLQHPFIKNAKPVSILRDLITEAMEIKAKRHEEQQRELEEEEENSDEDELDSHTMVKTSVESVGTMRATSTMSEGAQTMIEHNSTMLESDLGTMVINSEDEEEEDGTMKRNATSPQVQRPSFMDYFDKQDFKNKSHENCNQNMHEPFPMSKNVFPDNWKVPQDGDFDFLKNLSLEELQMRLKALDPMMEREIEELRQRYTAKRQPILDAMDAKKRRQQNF
Serine/threonine-protein kinase Nek9 (Homo sapiens), sequence (Q8TD19 whole entry): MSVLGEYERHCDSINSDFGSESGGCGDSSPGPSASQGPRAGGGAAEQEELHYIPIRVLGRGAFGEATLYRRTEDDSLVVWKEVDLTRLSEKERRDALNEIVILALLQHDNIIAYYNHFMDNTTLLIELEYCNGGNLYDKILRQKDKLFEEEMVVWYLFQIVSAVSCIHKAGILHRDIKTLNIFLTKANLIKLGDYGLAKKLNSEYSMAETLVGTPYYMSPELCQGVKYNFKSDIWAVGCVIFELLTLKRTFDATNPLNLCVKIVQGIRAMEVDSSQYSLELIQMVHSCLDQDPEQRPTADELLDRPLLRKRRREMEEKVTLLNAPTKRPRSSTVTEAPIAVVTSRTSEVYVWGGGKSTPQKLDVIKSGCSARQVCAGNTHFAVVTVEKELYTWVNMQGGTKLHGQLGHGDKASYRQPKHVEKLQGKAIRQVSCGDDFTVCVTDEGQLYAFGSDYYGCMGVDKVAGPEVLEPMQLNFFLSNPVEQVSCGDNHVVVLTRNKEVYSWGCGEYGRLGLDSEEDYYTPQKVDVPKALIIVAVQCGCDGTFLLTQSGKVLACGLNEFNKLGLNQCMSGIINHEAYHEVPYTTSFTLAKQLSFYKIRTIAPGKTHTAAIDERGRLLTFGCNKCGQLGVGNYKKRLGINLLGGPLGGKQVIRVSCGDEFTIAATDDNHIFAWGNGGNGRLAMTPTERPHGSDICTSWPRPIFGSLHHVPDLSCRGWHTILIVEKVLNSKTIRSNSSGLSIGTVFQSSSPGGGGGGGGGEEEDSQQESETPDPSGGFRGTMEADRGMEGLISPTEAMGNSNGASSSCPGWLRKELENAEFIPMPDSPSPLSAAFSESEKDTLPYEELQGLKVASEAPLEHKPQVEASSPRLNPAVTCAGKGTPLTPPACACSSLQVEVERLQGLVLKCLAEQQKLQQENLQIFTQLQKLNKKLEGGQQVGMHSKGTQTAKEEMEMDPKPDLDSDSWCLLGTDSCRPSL
Mitogen-activated protein kinase 1 (Homo sapiens), sequence (P28482 whole entry): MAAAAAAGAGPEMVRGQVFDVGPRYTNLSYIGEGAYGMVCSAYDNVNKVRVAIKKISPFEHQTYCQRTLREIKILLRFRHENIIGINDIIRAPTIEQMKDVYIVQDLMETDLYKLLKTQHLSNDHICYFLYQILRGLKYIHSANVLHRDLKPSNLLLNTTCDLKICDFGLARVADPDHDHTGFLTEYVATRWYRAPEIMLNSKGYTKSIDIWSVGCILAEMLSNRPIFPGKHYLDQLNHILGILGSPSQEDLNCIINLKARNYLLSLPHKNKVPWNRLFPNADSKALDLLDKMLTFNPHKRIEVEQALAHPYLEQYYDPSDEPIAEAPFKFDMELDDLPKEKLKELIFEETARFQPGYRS
B2 bradykinin receptor (Homo sapiens), sequence (P30411 whole entry): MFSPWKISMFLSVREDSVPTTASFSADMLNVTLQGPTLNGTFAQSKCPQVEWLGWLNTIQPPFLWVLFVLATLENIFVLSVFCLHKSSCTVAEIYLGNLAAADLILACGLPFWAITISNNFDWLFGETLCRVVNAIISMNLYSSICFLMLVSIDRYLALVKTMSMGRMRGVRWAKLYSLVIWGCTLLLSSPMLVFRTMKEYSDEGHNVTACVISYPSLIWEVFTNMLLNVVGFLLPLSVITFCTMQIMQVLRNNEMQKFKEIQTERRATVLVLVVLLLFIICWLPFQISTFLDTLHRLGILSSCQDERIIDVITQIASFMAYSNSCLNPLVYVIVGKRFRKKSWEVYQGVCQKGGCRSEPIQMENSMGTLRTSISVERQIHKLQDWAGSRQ
Mitogen-activated protein kinase 9 (Homo sapiens), sequence (P45984 whole entry, looked up): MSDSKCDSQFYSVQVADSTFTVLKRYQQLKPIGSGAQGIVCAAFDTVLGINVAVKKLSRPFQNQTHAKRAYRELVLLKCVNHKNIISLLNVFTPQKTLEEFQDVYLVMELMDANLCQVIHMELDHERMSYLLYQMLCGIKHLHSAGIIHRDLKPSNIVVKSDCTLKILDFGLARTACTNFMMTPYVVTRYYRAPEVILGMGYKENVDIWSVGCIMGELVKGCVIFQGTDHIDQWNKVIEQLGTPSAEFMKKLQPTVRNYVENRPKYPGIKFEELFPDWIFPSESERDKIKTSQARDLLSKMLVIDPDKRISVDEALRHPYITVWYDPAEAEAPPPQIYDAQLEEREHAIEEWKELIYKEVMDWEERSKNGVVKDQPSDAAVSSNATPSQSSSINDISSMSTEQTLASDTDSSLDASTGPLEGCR
Serine/threonine-protein kinase 35 (Homo sapiens), sequence (Q8TDR2 whole entry): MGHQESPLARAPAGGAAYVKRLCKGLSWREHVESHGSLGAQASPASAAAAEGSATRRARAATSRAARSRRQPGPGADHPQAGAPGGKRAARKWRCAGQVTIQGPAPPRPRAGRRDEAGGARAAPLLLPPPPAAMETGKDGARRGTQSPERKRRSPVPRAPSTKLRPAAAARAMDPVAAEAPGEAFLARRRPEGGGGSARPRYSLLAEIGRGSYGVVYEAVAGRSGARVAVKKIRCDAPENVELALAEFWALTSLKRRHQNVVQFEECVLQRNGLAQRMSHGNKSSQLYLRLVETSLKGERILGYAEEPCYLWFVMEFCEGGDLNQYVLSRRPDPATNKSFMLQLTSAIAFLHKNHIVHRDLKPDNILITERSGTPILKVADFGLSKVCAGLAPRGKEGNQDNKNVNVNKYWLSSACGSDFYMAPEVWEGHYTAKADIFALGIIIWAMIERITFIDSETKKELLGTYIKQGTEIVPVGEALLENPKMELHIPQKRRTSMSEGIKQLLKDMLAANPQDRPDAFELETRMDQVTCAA

On to `CC1=C(C#N)C(c2ccc3[nH]nc(C)c3c2)C(C#N)=C(C)N1` [BAY-474], for which the inhibition – broadly, the change of the read-out against control, counted positive when it falls – in assay [1] is 17%; in [2], 4%; in assay [3], 7%; in [4], 2%; in [5] it was 10%; in assay [6], 27%. Further, the inhibition was 12% in assay [7], -10% in assay [8], 17% in assay [9] and -7% in assay [10].

With `CC1=C(C#N)[C@@H](c2ccc3[nH]nc(C)c3c2)C(C#N)=C(c2ccc(Cl)cc2)N1` [BAY-827], the residual activity in [11] was 100%; in assay [12], 100%; in [13], 82.8%; in [14] it was 84.7%; in assay [15] it was 100%; in [16], 100%. In addition, the residual activity was 100% in assay [17]; 100% in assay [18]; 100% in assay [19]; 74.3% in assay [20]; 100% in assay [21]; 100% in [22]. Also, the residual activity in assay [23] was 93.9%; in assay [24], 89.9%; in assay [25], 100%; in assay [26] it was 93.1%; in assay [27], 100%; in [28] it was 68.8%. The residual activity in [29] was 100%; in assay [30], 100%; in assay [31], 67.9%; in assay [32] it was 100%; in assay [33], 100%; in [34], 95.6%. Also, the residual activity is 58.6% in assay [35]; 75.4% in assay [36]; 25.2% in assay [37]; 100% in [38]; 100% in assay [39]; 68.5% in assay [40]. In addition, the residual activity is 100% in assay [41]; 100% in [42]; 100% in [43]; 100% in assay [44]; 73.1% in assay [45].
